Results: US9365541B2, “Compounds for use in the treatment of parasitic diseases” (IRBM—SCIENCE PARK S.P.A., priority 2012, dated 2016)

Tests used:
[1] = tested on: Plasmodium falciparum 3D7; assay: P. falciparum growth inhibition assay (Pf-LDH); format: cell-based; settings: Plasmodium falciparum, Erythrocyte; P. falciparum 3D7 infected erythrocytes, 72 h incubation, PfLDH readout
Experimental: Basic culture of Plasmodium falciparum 3D7 parasites (Malaria Research and Reference Reagent Resource Center (MR4), MR4 Number: MRA-102).
Starting with a culture with a parasitemia of about 10% (and 5% hematocrit), 0.5 ml of the culture is placed in a fresh 100 mm petri dish with 0.95 ml of fresh erythrocytes (50% hematocrit) and 8.55 ml of culture medium, giving a new starting parasitemia of 0.5%. The petri dish is then incubated at 37° C. in a humidified gas-tight plastic box flushed with a gas mixture consisting of 93% N2, 4% CO2, and 3% O2. The culture medium is changed daily. The supernatant is removed by gently tipping the dish without disturbing the settled cells and aspirating the medium with a Pasteur pipette connected to a vacuum pump. A small amount of the concentrated cells is taken to prepare a blood smear for determination of the parasitemia. Normally, the cultures are split twice a week. If the parasites are growing very slowly then fresh erythrocytes are added to the culture no later than after 7 days. The cultures are then split 1:2 if the parasitemia is lower than 0.5%. To avoid the necessity of daily medium change on weekends, a culture with a 2.5% hematocrit and 0.1-0.2% parasitemia is set up and can be left for 3 days without medium change.
Standard medium consists of RPMI 1640, supplemented with 25 mM HEPES, 24 mM NaHCO3, 0.36 mM hypoxanthine, 100 μg/ml Neomycin, 5 g/1 Albumax® II, and washed human red blood cells (rbcs) A+.
P. falciparum Growth Inhibition Assay (Pf-LDH)
Compounds of the invention were assessed for in vitro antimalarial activity against a cloroquine sensitive (3D7) strain of the malaria parasite Plasmodium falciparum, using a lactate dehydrogenase (PfLDH) assay.
EC50 Determination by Pf-LDH Assay
384 plates (where compounds to be tested are dispensed) with 25 μl of parasite inoculum (parasitemia: 0.25%, hematocrit: 2%) are incubated at 37° C. in an atmosphere of 4% CO2, 3% O2, 93% N2. After 72 h of incubation, plates are frozen at −70° C. overnight and thawed at room temperature for at least 4 h. To evaluate PfLDH activity, 70 μl of freshly made reaction mix (143 mM sodium L-lactate, 143 μM 3-acetyl pyridine adenine dinucleotide (APAD), 178.75 μM Nitro Blue tetrazolium chloride (NBT), 286 μg/ml diaphorase (2.83 U/ml), 0.7% Tween 20, 100 mM Tris-HCl pH 8.0) is dispensed using a Multidrop Combi dispenser. Plates are shaken to ensure mixing and absorbance at 650 nm is monitored in a plate reader after 10 min of incubation at room temperature.
Negative controls (0% Effect) are produced by addition of DMSO to the proper wells.
Positive controls (100% Effect) are produced by addition of 150 nM Artemisinin (Sigma-Aldrich, 361593)
After result normalization using positive and negative controls, compound potency is determined by fitting the following equation: % inh=Ymin+(Ymax−Ymin)/(1+(X/EC50)^slope)) Where: • Ymin=minimum percentage effect • Ymax=maximum percentage effect • EC50=the concentration of the compound at which 50% effect is reached • Slope=the slope of the curve calculated at the EC50 Histone Hyperacetylation and Immunodetection of Altered Histone Modifications Assay

[2] = target: T1, human HDAC1 (Homo sapiens, UniProt Q13547); assay: Homo sapiens HDAC1 inhibition assay (Fluor-de-Lys, enzymatic); format: biochemical; settings: human HDAC enzymatic assay; read-out: hHDAC IC50
T1 construct: made in house; host or cells: HeLa (ATCC CCL-2), mammalian cells
Experimental: Biology Homo sapiens HDAC1 Inhibition Assay Overview:
The aim of the assay is to evaluate the inhibition of the deacetylase activity of human HDAC1. To such goal an acetylated substrate is added to the enzyme mix; the resulting enzymatic product is converted to a fluorescent molecule by the addition the enzyme trypsine (developer solution). Fluorescence intensity is inversely proportional to the rate of inhibition of the enzyme (as indicated in the material section below).
Reagents of the HDAC Fluorescent Activity Assay are purchased from Enzo Life Sciences (http://www.enzolifesciences.com/BML-AK500/fluor-de-lys-hdac-fluorometric-activity-assay-kit/) and feature the Fluor-de-Lys™ Substrate/Developer System.
c) Trichostatin A (TSA) Stock
TSA (Sigma-Aldrich, T8552) is provided as a 10 mM stock solution in 100% dimethylsulfoxide (DMSO).
Diluted Substrate Solution
The final concentration in the assay is 20 μM.
Diluted Developer Solution
2 μM [final] TSA to this solution increases its ability to stop the reaction.
The HDAC1 enzyme is diluted in assay buffer prior to each use from a fresh aliquot of enzyme.
The final concentration in the assay is 1-2 nM.
Test compounds should be prepared in 100% DMSO and transferred to the assay by a nano volume dispenser to reach the appropriate concentration and the appropriate DMSO concentration (0.25%) in the reaction.

T1 sequence (Q13547 whole entry): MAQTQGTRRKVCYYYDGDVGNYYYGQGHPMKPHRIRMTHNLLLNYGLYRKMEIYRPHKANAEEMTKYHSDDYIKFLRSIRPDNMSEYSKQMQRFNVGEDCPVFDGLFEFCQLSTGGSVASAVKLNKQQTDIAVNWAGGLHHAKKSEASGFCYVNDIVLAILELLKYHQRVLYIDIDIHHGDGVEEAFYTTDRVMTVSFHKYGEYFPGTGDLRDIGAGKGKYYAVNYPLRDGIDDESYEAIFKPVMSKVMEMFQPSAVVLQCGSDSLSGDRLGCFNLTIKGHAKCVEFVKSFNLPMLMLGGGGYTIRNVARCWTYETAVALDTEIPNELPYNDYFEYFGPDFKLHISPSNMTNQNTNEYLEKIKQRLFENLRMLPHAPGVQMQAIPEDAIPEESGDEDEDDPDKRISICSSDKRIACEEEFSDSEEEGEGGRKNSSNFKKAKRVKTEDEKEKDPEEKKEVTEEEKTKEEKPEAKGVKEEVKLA

Structure (SMILES) | EC50 [1] | IC50 [2]
CNC(=O)CCCCC[C@H](NC(=O)c1cncs1)c1ncc(-c2cccc3c2OCCO3)[nH]1 [Entry 79] | > 5000 nM | 1000 to 5000 nM
CCc1nc2ccccc2n1CCC(=O)N[C@@H](CCCCCC(=O)NC)c1ncc(-c2cc3ccccc3nc2OC)[nH]1 [Entry 8, (S)-7-(3-(2-ethyl-1H-benzo[d]imidazol-1-yl)propanamido)-7-(5-(2-methoxyquinolin-3-yl)-1H-imidazol-2-yl)-N-methylheptanamide] | 1000 to 5000 nM | < 1000 nM
CNC(=O)CCCCC[C@H](NC(=O)Cc1c(C)[nH]c2ccc(OC)cc12)c1ncc(-c2ccc3ccccc3c2)[nH]1 [Entry 75, (S)-7-(2-(5-methoxy-2-methyl-1H-indol-3-yl)acetamido)-N-methyl-7-(5-(naphthalen-2-yl)-1H-imidazol-2-yl)heptanamide] | < 1000 nM | < 1000 nM
CNC(=O)CCCCC[C@H](NC(=O)C1CN(C)C1)c1ncc(-c2ccc3ccccc3c2)[nH]1 [Entry 26] | 1000 to 5000 nM | < 1000 nM
CNC(=O)CCCCC[C@H](NC(=O)c1cncs1)c1ncc(-c2cccc3ccoc23)[nH]1 [Entry 147, (S)-N-(1-(5-(benzofuran-7-yl)-1H-imidazol-2-yl)-7-(methylamino)-7-oxoheptyl)thiazole-5-carboxamide] | 1000 to 5000 nM | 1000 to 5000 nM
CNC(=O)CCCCC[C@H](NC(=O)c1cccc(-n2nc(C)cc2C)c1)c1ncc(-c2ccc3ccccc3c2)[nH]1 [Entry 42, (S)-3-(3,5-dimethyl-1H-pyrazol-1-yl)-N-(7-(methylamino)-1-(5-(naphthalen-2-yl)-1H-imidazol-2-yl)-7-oxo-heptyl)benzamide] | 1000 to 5000 nM | 1000 to 5000 nM
CNC(=O)CCCCC[C@H](NC(=O)C1CCC1(F)F)c1ncc(-c2ccc3ccncc3c2)[nH]1 (stereo partly drawn) [Entry 145, 2,2-difluoro-N-((S)-1-(5-(isoquinolin-7-yl)-1H-imidazol-2-yl)-7-(methylamino)-7-oxo-heptyl)cyclobutane-carboxamide] | 1000 to 5000 nM | 1000 to 5000 nM
CNC(=O)CCCCC[C@H](NS(=O)(=O)c1cccc([N+](=O)[O-])c1)c1ncc(-c2ccc3ccccc3c2)[nH]1 [Entry 3] | < 1000 nM | < 1000 nM
CNC(=O)CCCCC[C@H](NC(=O)C1CC(=O)Nc2ccccc21)c1ncc(-c2ccc3ccccc3c2)[nH]1 (stereo partly drawn) [Entry 198, N-((S)-7-(methylamino)-1-(5-(naphthalen-2-yl)-1H-imidazol-2-yl)-7-oxoheptyl)-2-oxo-1,2,3,4-tetrahydroquinoline-4-carboxamide] | < 1000 nM | 1000 to 5000 nM

The next lines start with the values.

EC50 [1] | IC50 [2] | Structure (SMILES)
1000 to 5000 nM | 1000 to 5000 nM | CNC(=O)CCCCC[C@H](NC(=O)CCn1cncn1)c1ncc(-c2cc3ccccc3nc2OC)[nH]1 [Entry 180, (S)-7-(3-(1H-1,2,4-triazol-1-yl)propanamido)-7-(5-(2-methoxyquinolin-3-yl)-1H-imidazol-2-yl)-N-methyl-heptanamide]
> 5000 nM | > 5000 nM | CNC(=O)CCCCC[C@H](NC(=O)c1cncs1)c1ncc(-c2ccc3occc3c2)[nH]1 [Entry 136, (S)-N-(1-(5-(benzofuran-5-yl)-1H-imidazol-2-yl)-7-(methylamino)-7-oxoheptyl)thiazole-5-carboxamide]
1000 to 5000 nM | 1000 to 5000 nM | CCc1nc2ccccc2n1CCC(=O)N[C@@H](CCCCCC(=O)NC)c1nnc(-c2ccc3ccccc3c2)o1 [Entry 94, (S)-7-(3-(2-ethyl-1H-benzo[d]imidazol-1-yl)propanamido)-N-methyl-7-(5-(naphthalen-2-yl)-1,3,4-oxadiazol-2-yl)heptanamide]
1000 to 5000 nM | 1000 to 5000 nM | CNC(=O)CCCCC[C@H](NC(=O)c1ccc(-n2cccc2)nc1)c1ncc(-c2ccc3ccccc3c2)[nH]1 [Entry 83, (S)-N-(7-(methylamino)-1-(5-(naphthalen-2-yl)-1H-imidazol-2-yl)-7-oxoheptyl)-6-(1H-pyrrol-1-yl)nicotinamide]
1000 to 5000 nM | 1000 to 5000 nM | CNC(=O)CCCCC[C@H](NC(=O)c1cncs1)c1ncc(-c2ccc(-c3cc(C)[nH]n3)cc2)[nH]1 [Entry 59, (S)-N-(1-(5-(4-(5-methyl-1H-pyrazol-3-yl)phenyl)-1H-imidazol-2-yl)-7-(methylamino)-7-oxoheptyl)thiazole-5-carboxamide]
> 5000 nM | 1000 to 5000 nM | CNC(=O)CCCCC[C@H](NC(=O)CN1CCN(C)CC1)c1ncc(-c2ccc3ccccc3c2)[nH]1 [Entry 165, (S)-N-methyl-7-(2-(4-methylpiperazin-1-yl)acetamido)-7-(5-(naphthalen-2-yl)-1H-imidazol-2-yl)heptanamide]
1000 to 5000 nM | > 5000 nM | CNC(=O)CCCCC[C@H](NC(=O)c1nnc(C)o1)c1ncc(-c2ccc3ccccc3c2)[nH]1 [Entry 203, (S)-5-methyl-N-(7-(methylamino)-1-(5-(naphthalen-2-yl)-1H-imidazol-2-yl)-7-oxoheptyl)-1,3,4-oxadiazole-2-carboxamide]
1000 to 5000 nM | < 1000 nM | CCc1nc2ccccc2n1CCC(=O)N[C@@H](CCCCCC(=O)NC)c1ncc(-c2ccc(C(F)(F)F)cc2)[nH]1 [Entry 28]
1000 to 5000 nM | > 5000 nM | CNC(=O)CCCCC[C@H](NC(=O)c1ccn(C(F)F)n1)c1ncc(-c2ccc(-c3ccn(C)n3)cc2)[nH]1 [Entry 214, (S)-1-(difluoromethyl)-N-(1-(5-(4-(1-methyl-1H-pyrazol-3-yl)phenyl)-1H-imidazol-2-yl)-7-(methylamino)-7-oxoheptyl)-1H-pyrazole-3-carboxamide]
< 1000 nM | < 1000 nM | CNC(=O)CCCCC[C@H](NC(=O)Cc1cnc2ncnn2c1)c1ncc(-c2ccc3ccccc3c2)[nH]1 [Entry 22, (S)-7-(2-([1,2,4]triazolo[1,5-a]pyrimidin-6-yl)acetamido)-N-methyl-7-(5-(naphthalen-2-yl)-1H-imidazol-2-yl)heptanamide]
1000 to 5000 nM | 1000 to 5000 nM | CNC(=O)CCCCC[C@H](NC(=O)c1cc2cc(OC)ccc2[nH]1)c1ncc(-c2ccc3ccccc3c2)[nH]1 [Entry 73, (S)-5-methoxy-N-(7-(methylamino)-1-(5-(naphthalen-2-yl)-1H-imidazol-2-yl)-7-oxoheptyl)-1H-indole-2-carboxamide]
1000 to 5000 nM | 1000 to 5000 nM | CNC(=O)CCCCC[C@H](NC(=O)Cc1cn2ccsc2n1)c1ncc(-c2ccc3ccncc3c2)[nH]1 [Entry 168, (S)-7-(2-(imidazo[2,1-b]thiazol-6-yl)acetamido)-7-(5-(isoquinolin-7-yl)-1H-imidazol-2-yl)-N-methyl-heptanamide]
1000 to 5000 nM | > 5000 nM | CNC(=O)CCCCC[C@H](NC(=O)c1cnsc1)c1ncc(-c2ccc(-c3ccn(C)n3)cc2)o1 [Entry 226, (S)-N-(1-(5-(4-(1-methyl-1H-pyrazol-3-yl)phenyl)oxazol-2-yl)-7-(methylamino)-7-oxoheptyl)isothiazole-4-carboxamide]
